Where two headings read alike, the source gives them in different places.

Results on nine compounds are retold here after patent EP0514133A1, “Benzodiazepine derivatives, compositions containing them and their use in therapy” (priority 1991, dated 1992).

Experiment [1] addresses T1, CCK receptor (brain, cortex) (Cavia porcellus, UniProt H0VZC5).
T1 construct: the cortex was removed and homogenized in 25 mL ice-cold 0.32 M sucrose; from tissue; host or cells: guinea pig brain cortex P2 membrane pellet
T1 sequence (H0VZC5 1-426): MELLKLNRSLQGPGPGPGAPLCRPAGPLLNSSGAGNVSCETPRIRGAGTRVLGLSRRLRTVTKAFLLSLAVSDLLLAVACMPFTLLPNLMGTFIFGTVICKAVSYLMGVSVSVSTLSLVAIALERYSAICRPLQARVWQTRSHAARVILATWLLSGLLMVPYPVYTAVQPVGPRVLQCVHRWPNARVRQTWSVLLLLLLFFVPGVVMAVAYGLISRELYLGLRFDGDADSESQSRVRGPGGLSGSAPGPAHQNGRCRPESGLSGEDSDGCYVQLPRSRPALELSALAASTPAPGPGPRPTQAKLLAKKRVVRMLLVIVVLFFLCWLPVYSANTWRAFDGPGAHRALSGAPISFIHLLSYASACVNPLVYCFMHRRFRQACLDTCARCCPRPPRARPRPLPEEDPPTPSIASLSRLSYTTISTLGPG
As to the kind of experiment: biochemical. The format is binding, guinea pig. On the procedure:
CCK-8 sulphated was radiolabelled and the binding was performed according to the description for the pancreas method with minor modifications.
Male Hartley guinea pigs (300-500g) were sacrificed by decapitation and the cortex was removed and homogenized in 25 mL ice-cold 0.32 M sucrose. The homogenates were centrifuged at 1000 g for 10 minutes and the resulting supernatant was recentrifuged at 20,000 g for 20 minutes. The P₂ pellet was resuspended in binding assay buffer (20mM HEPES, 5 mM MgCl₂, 0.25 mg/ml bacitracin, 1 mM EGTA pH 6.5 at 25°C), using a Teflon (trademark) homogenizer (5 strokes at 500 rpm) to give a final concentration of 10 mg original wet weight/1.2 ml buffer. […] All assays were run in duplicate. The reaction mixtures were incubated at 25°C for 2 hours and then the reaction was terminated by rapid filtration (Brandell 24 well cell harvester) on Whatman GF/C filters with 3 x 5 ml washes of cold 100 mM NaCl. The radioactivity on the filters was counted with a LKB gamma counter.
(§1) Drug displacement studies were performed with at least 10 concentrations of compounds of Formula I and the IC₅₀ values were determined by regression analysis IC₅₀ refers to the concentration of the compound required to inhibit 50% of specific binding of ¹²⁵I-CCK-8.

A further experiment has as its target T2, Gastrin Receptor (Cavia porcellus, UniProt H0VZC5).
T2 sequence (H0VZC5 1-426): T1 sequence (H0VZC5 1-426)
As to the kind of experiment: Gastrin Receptor Binding in Guinea Pig Gastric Glands, 125I-gastrin. The arrangement: from tissue; host or cells: isolated guinea pig gastric mucosal glands. Particulars: 0.1 nM 125I-gastrin, 25°C 30 minutes. On the procedure:
Gastrin antagonist activity of compounds of Formula I was determined using the following assay.
Guinea pig gastric mucosal glands were prepared by the procedure of Chang et. al., Science, 230, 177-179 (1985) with slight modifications. […] The tissues were passed twice through a 5 ml syringe to liberate the gastric glands, and then filtered through Nitex (trademark) #202 gauge nylon mesh. The filtered glands were centrifuged at 272 g for 5 minutes and washed twice by resuspension in 25 ml buffer and centrifugation.
The washed guinea pig gastric glands prepared as above were resuspended in 25 ml of standard buffer. For binding studies, to 250 µl of gastric glands, 30 µl of buffer (for total binding) or gastrin (3 µM final concentration, for nonspecific binding) or test compound and 20 µl of ¹²⁵I-gastrin (NEN, 2200 Ci/mmole, 0.1 nM final concentration) were added. All assays were run in triplicate. […] The reaction mixtures, after incubation at 25°C for 30 minutes in a shaking water bath were rapidly filtered (Brandell 24 well cell harvester) over Whatman G/F B filters presoaked in assay buffer and immediately washed further with 3 x 4 ml of 100 mM ice cold NaCl. The radioactivity on the filters was measured using a LKB gamma counter.

Another experiment addresses T3, CCK receptor (pancreas) (Rattus norvegicus, UniProt P30551).
T3 construct: The whole pancreas was dissected free of fat tissue and was homogenized; from tissue; host or cells: rat pancreas membrane homogenate
T3 sequence (P30551 1-444): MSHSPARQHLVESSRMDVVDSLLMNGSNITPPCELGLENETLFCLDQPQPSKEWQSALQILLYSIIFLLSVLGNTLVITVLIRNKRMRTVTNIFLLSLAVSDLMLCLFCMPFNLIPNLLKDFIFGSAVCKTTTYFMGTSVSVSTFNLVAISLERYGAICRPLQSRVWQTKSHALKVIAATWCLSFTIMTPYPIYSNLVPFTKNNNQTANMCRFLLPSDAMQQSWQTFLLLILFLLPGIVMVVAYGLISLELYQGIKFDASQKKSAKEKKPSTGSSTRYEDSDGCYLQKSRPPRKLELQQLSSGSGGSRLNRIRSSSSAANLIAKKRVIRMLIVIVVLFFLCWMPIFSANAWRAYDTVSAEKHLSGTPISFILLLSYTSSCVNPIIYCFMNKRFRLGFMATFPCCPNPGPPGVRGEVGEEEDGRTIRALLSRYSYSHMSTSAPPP
Nature of the experiment: biochemical. The format is binding. Particulars: rat pancreas membranes; for IC50: 50 pM 125I-CCK-8, 25°C 2 hours. On the procedure:
CCK-8 sulphated was radiolabelled with ¹²⁵I-Bolton Hunter reagent (2000 Ci/mmole). Receptor binding was performed according to Chang and Lotti (Proc. Natl. Acad. Sci. 83, 4923-4926, 1986) with minor modifications.
Male Sprague-Dawley rats (150-200g) were sacrificed by decapitation. The whole pancreas was dissected free of fat tissue and was homogenized in 25 volumes of ice-cold 10 mM N-2-hydroxyethyl-piperazine-N′-2-ethane sulphonic acid (HEPES) buffer with 0.1% soya bean trypsin inhibitor (pH 7.4 at 25°C) with a Kinematica Polytron. The homogenates were centrifuged at 47,800 g for 10 min. Pellets were resuspended in 10 volumes of binding assay buffer (20mM (HEPES)), 1mM ethylene glycol-bis-(β-aminoethylether-N,N′-tetraacetic acid) (EGTA), 5mM MgCl₂, 150 mM NaCl, bacitracin 0.25 mg/ml, soya bean trypsin inhibitor 0.1 mg/ml, and bovine serum albumin 2 mg/ml pH 6.5 at 25°C) using a Teflon (trademark) homogenizer, 15 strokes at 500 rpm. The homogenate was further diluted in binding assay buffer to give a final concentration of 0.5 mg original wet weight/1 ml buffer. […] All assays were run in duplicate. The reaction mixtures were incubated at 25°C for 2 hours and the reaction terminated by rapid filtration (Brandell 24 well cell harvester) over Whatman GF/C filters, washing 3 x 4 mls with ice-cold 100 Mm NaCl. The radioactivity on the filters was counted with a LKB gamma counter.
as §1

Setting [2] is: guinea pig cortex membranes, 50 pM 125I-CCK-8, 25°C 2 hours, read-out: IC50 ^125I-CCK Brain.

In the case of `CN1C(=O)C(NC(=O)Nc2cccc(-c3nn[nH]n3)c2)N=C(C2CCCCC2)c2ccccc21` (racemic) [Example 4, N-[3(R,S)-5-Cyclohexyl-2,3-dihydro-1-methyl-2-oxo-1H-1,4-benzodiazepin-3-yl] N′-[3-tetrazol-5-ylphenyl]urea], the values for the IC50 (in experiment [1] (setting [2]); at Gastrin Receptor; against CCK receptor (pancreas)) were 0.09 nM, 0.44 nM and 11 nM, respectively.
In the same order, the values of “N-(3(R,S)-5-Cyclopentyl-2,3-dihydro-1-methyl-2-oxo-1H-1,4-benzodiazepin-3-yl] N′-[3-(1,1-dimethylethylsulphonylaminocarbonyl)phenyl] urea [Example 39]” are 0.56 nM, 1.18 nM and 270 nM.
As for `Cc1cccc(NC(=O)NC2N=C(C3CCCCC3)c3ccccc3N(C)C2=O)c1` (racemic) [Example 1, N-[3(R,S)-5-Cyclohexyl-2,3-dihydro-1-methyl-2-oxo-1H-1,4-benzodiazepin-3-yl] N′-[3-methylphenyl] urea], the values for the IC50 (in experiment [1] (setting [2]); on Gastrin Receptor) were 2.2 nM and 0.83 nM, respectively.
Take `CN1C(=O)[C@H](NC(=O)Nc2cccc(C(=O)NS(=O)(=O)c3ccccc3)c2)N=C(C2CCCCC2)c2ccccc21` [Example 27, (-)-N-[3(R)-5-Cyclohexyl-2,3-dihydro-1-methyl-2-oxo-1H-1,4-benzodiazepin-3-yl] N′-[3-(phenylsulphonylaminocarbonyl)phenyl]urea]: the values for the half-inhibitory concentration (IC50) (in experiment [1]; on Gastrin Receptor) were 0.38 nM and 1.34 nM, respectively. In addition, the inhibition – broadly, the share of the control response that was lost under treatment – at 3 µM at CCK receptor (pancreas) (at 3μM, read-out: inhibition of ^125I-CCK binding, Pancreas) was found to be 19%.
Regarding `Cc1cccc(NC(=O)NC2N=C(C3CCCCC3)c3ccccc3N(C)C2=O)c1` (single isomer, unassigned) [7 (Peak A)], the values for the IC50 (in experiment [1] (setting [2]); at Gastrin Receptor) were 0.47 nM and 0.92 nM, respectively.
In the case of `CN1C(=O)C(NC(=O)Nc2cccc(S(=O)(=O)NC(=O)C(F)(F)F)c2)N=C(C2CCCCC2)c2ccccc21` (racemic) [Example 17, N-[3(R,S)-5-Cyclohexyl-2,3-dihydro-1-methyl-2-oxo-1H-1,4-benzodiazepin-3-yl] N′-[3-(trifluoromethylcarbonylaminosulphonyl)phenyl] urea], the figures for the concentration for half-maximal inhibition (IC50) (in experiment [1] (setting [2]); on Gastrin Receptor; at CCK receptor (pancreas)) were 0.9 nM, 10.5 nM and 137 nM, respectively.
Consider `CC(=O)NS(=O)(=O)c1cccc(NC(=O)NC2N=C(C3CCCCC3)c3ccccc3N(C)C2=O)c1` (racemic) [Example 15, N-[3(R,S)-5-Cyclohexyl-2,3-dihydro-1-methyl-2-oxo-1H-1,4-benzodiazepin-3-yl] N′-[3-(methylcarbonylaminosulphonyl)phenyl] urea], for which the IC50 – broadly, the concentration at which inhibition is half-maximal – in experiment [1] turned out to be 0.4 nM; on Gastrin Receptor it was 1.06 nM; against CCK receptor (pancreas) it was 19.8 nM.
Take `CCN1C(=O)C(NC(=O)Nc2cccc(S(=O)(=O)NC(C)=O)c2)N=C(C2CCCC2)c2ccccc21` (racemic) [Example 20, N-[3(R,S)-5-Cyclopentyl-2,3-dihydro-1-ethyl-2-oxo-1H-1,4-benzodiazepin-3-yl] N′-[3-(methylcarbonylaminosulphonyl)phenyl] urea]: the results for the concentration for half-maximal inhibition (IC50) (in experiment [1] (setting [2]); at Gastrin Receptor; on CCK receptor (pancreas)) were 1.4 nM, 1.77 nM and 953 nM, respectively.
With `CC(C)S(=O)(=O)NC(=O)c1cccc(NC(=O)NC2N=C(C3CCCCC3)c3ccccc3N(C)C2=O)c1` (racemic) [Example 12, N-[3(R,S)-5-Cyclohexyl-2,3-dihydro-1-methyl-2-oxo-1H-1,4-benzodiazepin-3-yl] N′-[3-(isopropylsulphonylaminocarbonyl)phenyl] urea], the 50% inhibitory concentration (IC50) at Gastrin Receptor came to 3.24 nM; against CCK receptor (pancreas) it was 12.4 nM.
